What was measured:
Assay in all cases: Kinome-wide inhibition profiling
Type in all cases: biochemical
PRKD2 = target: T1, PRKD2 (Homo sapiens, UniProt Q9BZL6)
T1 construct: purchased Reaction Biology Corp
Procedure: (§1) In vitro CDK12/cyclinK assays for all compounds and in vitro kinome-wide inhibition profiling of 30d at 10 μM were performed by a CRO company (Reaction Biology Corp., San Diego, CA, USA).

CSNK1A1 = target: T2, CSNK1A1 (Homo sapiens, UniProt P48729)
T2 construct: purchased Reaction Biology Corp
Procedure: as §1

NLK = target: T3, NLK (Homo sapiens, UniProt Q9UBE8)
T3 construct: purchased Reaction Biology Corp
Procedure: as §1

FER = target: T4, FER (Homo sapiens, UniProt P16591)
T4 construct: purchased Reaction Biology Corp
Procedure: as §1

GRK6 = target: T5, GRK6 (Homo sapiens, UniProt P43250)
T5 construct: purchased Reaction Biology Corp
Procedure: as §1

CDK4/cyclinD1 = target: T6, CDK4/cyclinD1 (Homo sapiens, UniProt P11802)
T6 construct: purchased Reaction Biology Corp
Procedure: as §1

EPHB4 = target: T7, EPHB4 (Homo sapiens, UniProt P54760)
T7 construct: purchased Reaction Biology Corp
Procedure: as §1

MYLK2 = target: T8, MYLK2 (Homo sapiens, UniProt Q9H1R3)
T8 construct: purchased Reaction Biology Corp
Procedure: as §1

STK39 = target: T9, STK39 (Homo sapiens, UniProt Q9UEW8)
T9 construct: purchased Reaction Biology Corp
Procedure: as §1

EGFR = target: T10, EGFR (Homo sapiens, UniProt P00533)
T10 construct: purchased Reaction Biology Corp
Procedure: as §1

PKAC-gamma = target: T11, PKAC-gamma (Homo sapiens, UniProt P22612)
T11 construct: purchased Reaction Biology Corp
Procedure: as §1

SIK2 = target: T12, SIK2 (Homo sapiens, UniProt Q9H0K1)
T12 construct: purchased Reaction Biology Corp
Procedure: as §1

VRK1 = target: T13, VRK1 (Homo sapiens, UniProt Q99986)
T13 construct: purchased Reaction Biology Corp
Procedure: as §1

RET = target: T14, RET (Homo sapiens, UniProt P07949)
T14 construct: purchased Reaction Biology Corp
Procedure: as §1

IGF1R = target: T15, IGF1R (Homo sapiens, UniProt P08069)
T15 construct: purchased Reaction Biology Corp
Procedure: as §1

MAP4K2 = target: T16, MAP4K2 (Homo sapiens, UniProt Q12851)
T16 construct: purchased Reaction Biology Corp
Procedure: as §1

MLCK = target: T17, MLCK (Homo sapiens, UniProt Q15746)
T17 construct: purchased Reaction Biology Corp
Procedure: as §1

STK23 = target: T18, STK23 (Homo sapiens, UniProt Q9UPE1)
T18 construct: purchased Reaction Biology Corp
Procedure: as §1

TBK1 = target: T19, TBK1 (Homo sapiens, UniProt Q9UHD2)
T19 construct: purchased Reaction Biology Corp
Procedure: as §1

LRRK2 = target: T20, LRRK2 (Homo sapiens, UniProt Q5S007)
T20 construct: purchased Reaction Biology Corp
Procedure: as §1

LTK = target: T21, LTK (Homo sapiens, UniProt P29376)
T21 construct: purchased Reaction Biology Corp
Procedure: as §1

CIT = target: T22, CIT (Homo sapiens, UniProt O14578)
T22 construct: purchased Reaction Biology Corp
Procedure: as §1

EPHA7 = target: T23, EPHA7 (Homo sapiens, UniProt Q15375)
T23 construct: purchased Reaction Biology Corp
Procedure: as §1

PRKX = target: T24, PRKX (Homo sapiens, UniProt P51817)
T24 construct: purchased Reaction Biology Corp
Procedure: as §1

KSR1 = target: T25, KSR1 (Homo sapiens, UniProt Q8IVT5)
T25 construct: purchased Reaction Biology Corp
Procedure: as §1

CSNK1G1 = target: T26, CSNK1G1 (Homo sapiens, UniProt Q9HCP0)
T26 construct: purchased Reaction Biology Corp
Procedure: as §1

ERN2 = target: T27, ERN2 (Homo sapiens, UniProt Q76MJ5)
T27 construct: purchased Reaction Biology Corp
Procedure: as §1

SRMS = target: T28, SRMS (Homo sapiens, UniProt Q9H3Y6)
T28 construct: purchased Reaction Biology Corp
Procedure: as §1

IKK-beta = target: T29, IKK-beta (Homo sapiens, UniProt O14920)
T29 construct: purchased Reaction Biology Corp
Procedure: as §1

TNIK = target: T30, TNIK (Homo sapiens, UniProt Q9UKE5)
T30 construct: purchased Reaction Biology Corp
Procedure: as §1

PKN2 = target: T31, PKN2 (Homo sapiens, UniProt Q16513)
T31 construct: purchased Reaction Biology Corp
Procedure: as §1

PRKCH = target: T32, PRKCH (Homo sapiens, UniProt P24723)
T32 construct: purchased Reaction Biology Corp
Procedure: as §1

PKN3 = target: T33, PKN3 (Homo sapiens, UniProt Q6P5Z2)
T33 construct: purchased Reaction Biology Corp
Procedure: as §1

CLK2 = target: T34, CLK2 (Homo sapiens, UniProt P49760)
T34 construct: purchased Reaction Biology Corp
Procedure: as §1

LKB1 = target: T35, LKB1 (Homo sapiens, UniProt Q15831)
T35 construct: purchased Reaction Biology Corp
Procedure: as §1

CSK = target: T36, CSK (Homo sapiens, UniProt P41240)
T36 construct: purchased Reaction Biology Corp
Procedure: as §1

PDGFRa = target: T37, PDGFRa (Homo sapiens, UniProt P16234)
T37 construct: purchased Reaction Biology Corp
Procedure: as §1

TAOK2 = target: T38, TAOK2 (Homo sapiens, UniProt Q9UL54)
T38 construct: purchased Reaction Biology Corp
Procedure: as §1

ITK = target: T39, ITK (Homo sapiens, UniProt Q08881)
T39 construct: purchased Reaction Biology Corp
Procedure: as §1

MKK7 = target: T40, MKK7 (Homo sapiens, UniProt O14733)
T40 construct: purchased Reaction Biology Corp
Procedure: as §1

CHEK2 = target: T41, CHEK2 (Homo sapiens, UniProt O96017)
T41 construct: purchased Reaction Biology Corp
Procedure: as §1

MKK4 = target: T42, MKK4 (Homo sapiens, UniProt P45985)
T42 construct: purchased Reaction Biology Corp
Procedure: as §1

MINK = target: T43, MINK (Homo sapiens, UniProt Q8N4C8)
T43 construct: purchased Reaction Biology Corp
Procedure: as §1

INSRR = target: T44, INSRR (Homo sapiens, UniProt P14616)
T44 construct: purchased Reaction Biology Corp
Procedure: as §1

T35 sequence (Q15831 whole entry): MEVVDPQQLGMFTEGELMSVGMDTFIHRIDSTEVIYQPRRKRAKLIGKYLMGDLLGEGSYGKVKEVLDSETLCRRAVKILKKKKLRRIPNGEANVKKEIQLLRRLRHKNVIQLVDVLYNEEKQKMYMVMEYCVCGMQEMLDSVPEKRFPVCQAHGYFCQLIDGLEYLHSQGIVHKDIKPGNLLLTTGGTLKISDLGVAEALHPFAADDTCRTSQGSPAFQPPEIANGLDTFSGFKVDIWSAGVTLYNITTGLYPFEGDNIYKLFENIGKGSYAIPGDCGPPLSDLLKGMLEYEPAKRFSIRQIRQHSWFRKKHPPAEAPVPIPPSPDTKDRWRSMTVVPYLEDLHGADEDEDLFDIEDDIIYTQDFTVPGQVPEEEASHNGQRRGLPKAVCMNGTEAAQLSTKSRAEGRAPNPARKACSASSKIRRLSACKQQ
T35 sequence (Q7RTN6 whole entry partner): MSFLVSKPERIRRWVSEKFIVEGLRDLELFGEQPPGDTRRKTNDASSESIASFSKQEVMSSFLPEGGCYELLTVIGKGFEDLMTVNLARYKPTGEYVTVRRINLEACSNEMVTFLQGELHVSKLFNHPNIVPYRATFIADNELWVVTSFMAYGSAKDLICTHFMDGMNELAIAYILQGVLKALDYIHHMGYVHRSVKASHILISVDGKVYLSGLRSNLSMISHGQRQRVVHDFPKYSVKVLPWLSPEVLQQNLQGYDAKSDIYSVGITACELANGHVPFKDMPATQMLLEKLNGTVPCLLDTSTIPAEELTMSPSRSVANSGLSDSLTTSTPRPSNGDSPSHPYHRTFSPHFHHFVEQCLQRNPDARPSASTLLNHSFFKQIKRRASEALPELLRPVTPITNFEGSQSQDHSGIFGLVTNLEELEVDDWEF
T35 sequence (Q9Y376 whole entry partner): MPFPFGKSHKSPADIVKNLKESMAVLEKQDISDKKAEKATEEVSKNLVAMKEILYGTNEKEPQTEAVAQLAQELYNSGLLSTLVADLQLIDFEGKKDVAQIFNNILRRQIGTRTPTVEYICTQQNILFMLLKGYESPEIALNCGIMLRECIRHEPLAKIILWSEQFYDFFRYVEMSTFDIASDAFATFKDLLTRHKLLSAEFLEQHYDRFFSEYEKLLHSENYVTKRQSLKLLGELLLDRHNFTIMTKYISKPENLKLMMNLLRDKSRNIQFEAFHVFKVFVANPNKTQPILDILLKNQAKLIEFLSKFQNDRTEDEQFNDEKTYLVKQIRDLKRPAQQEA
T17 sequence (Q15746 whole entry): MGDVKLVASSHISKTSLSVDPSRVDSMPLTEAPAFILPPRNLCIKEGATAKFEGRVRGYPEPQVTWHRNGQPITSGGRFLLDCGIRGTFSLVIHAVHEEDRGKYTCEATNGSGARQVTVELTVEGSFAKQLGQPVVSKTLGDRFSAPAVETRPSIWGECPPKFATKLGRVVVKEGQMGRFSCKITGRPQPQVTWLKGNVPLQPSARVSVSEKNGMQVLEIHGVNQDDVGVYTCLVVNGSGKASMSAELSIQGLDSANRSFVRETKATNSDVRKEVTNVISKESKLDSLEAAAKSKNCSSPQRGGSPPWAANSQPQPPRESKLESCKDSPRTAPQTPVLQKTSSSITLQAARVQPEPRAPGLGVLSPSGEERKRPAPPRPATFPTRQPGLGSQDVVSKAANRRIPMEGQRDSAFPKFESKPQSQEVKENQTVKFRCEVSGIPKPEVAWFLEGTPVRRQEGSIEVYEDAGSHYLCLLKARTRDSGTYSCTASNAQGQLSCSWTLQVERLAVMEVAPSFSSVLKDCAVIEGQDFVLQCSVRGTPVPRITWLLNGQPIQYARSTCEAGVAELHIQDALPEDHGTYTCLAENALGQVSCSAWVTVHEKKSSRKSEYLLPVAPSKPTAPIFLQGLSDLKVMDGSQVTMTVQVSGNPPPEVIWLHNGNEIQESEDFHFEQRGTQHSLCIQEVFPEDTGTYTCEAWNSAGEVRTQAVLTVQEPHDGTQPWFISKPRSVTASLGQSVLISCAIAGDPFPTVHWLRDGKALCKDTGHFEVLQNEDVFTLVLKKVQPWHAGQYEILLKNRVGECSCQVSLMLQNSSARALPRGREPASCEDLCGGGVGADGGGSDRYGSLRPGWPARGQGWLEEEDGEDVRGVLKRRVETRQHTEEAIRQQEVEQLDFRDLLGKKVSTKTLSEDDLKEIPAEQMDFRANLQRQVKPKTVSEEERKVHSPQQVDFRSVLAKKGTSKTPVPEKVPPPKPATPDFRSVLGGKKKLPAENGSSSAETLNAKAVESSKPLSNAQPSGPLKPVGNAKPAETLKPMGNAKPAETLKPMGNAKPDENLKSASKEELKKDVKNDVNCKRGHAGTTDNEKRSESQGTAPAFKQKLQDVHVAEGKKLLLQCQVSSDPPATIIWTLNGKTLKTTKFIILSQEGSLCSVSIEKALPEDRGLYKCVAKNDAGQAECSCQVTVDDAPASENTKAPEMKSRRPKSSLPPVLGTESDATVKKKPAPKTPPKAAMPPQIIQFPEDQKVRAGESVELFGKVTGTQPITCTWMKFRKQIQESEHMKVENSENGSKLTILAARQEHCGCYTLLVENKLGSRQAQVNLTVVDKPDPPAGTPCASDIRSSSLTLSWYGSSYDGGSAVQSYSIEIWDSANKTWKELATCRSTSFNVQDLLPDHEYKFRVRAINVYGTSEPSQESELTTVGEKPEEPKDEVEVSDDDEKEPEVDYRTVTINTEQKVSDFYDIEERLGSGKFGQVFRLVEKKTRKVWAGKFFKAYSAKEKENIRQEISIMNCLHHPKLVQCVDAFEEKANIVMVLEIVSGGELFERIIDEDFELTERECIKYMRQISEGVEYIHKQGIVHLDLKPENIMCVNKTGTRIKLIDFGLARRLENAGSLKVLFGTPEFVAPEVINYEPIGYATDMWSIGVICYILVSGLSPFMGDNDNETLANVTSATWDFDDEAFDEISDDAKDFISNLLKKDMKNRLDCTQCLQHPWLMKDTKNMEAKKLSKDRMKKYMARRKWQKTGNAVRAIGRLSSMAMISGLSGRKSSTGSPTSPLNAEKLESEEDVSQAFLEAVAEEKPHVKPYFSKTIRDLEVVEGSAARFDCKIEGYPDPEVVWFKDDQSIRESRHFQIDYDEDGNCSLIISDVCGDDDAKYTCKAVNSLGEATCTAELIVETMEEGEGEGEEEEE
T32 sequence (P24723 whole entry): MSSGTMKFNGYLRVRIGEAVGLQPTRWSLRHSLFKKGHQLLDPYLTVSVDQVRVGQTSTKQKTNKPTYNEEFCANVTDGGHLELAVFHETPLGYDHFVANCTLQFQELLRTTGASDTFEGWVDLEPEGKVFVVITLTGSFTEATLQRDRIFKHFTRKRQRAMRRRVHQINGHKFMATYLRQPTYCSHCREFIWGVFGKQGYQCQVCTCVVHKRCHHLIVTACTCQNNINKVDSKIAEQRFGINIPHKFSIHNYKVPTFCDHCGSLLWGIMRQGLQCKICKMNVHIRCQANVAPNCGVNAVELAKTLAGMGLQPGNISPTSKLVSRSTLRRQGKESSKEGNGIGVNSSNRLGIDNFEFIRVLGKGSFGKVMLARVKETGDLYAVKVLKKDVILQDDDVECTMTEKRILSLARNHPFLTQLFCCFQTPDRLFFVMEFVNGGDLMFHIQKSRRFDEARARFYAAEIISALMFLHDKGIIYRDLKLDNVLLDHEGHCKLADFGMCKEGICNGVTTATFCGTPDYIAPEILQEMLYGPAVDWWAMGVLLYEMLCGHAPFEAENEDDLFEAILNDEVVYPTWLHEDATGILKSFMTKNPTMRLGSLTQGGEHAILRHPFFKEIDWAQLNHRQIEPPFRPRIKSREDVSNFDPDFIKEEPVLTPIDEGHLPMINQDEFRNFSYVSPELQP
T24 sequence (P51817 whole entry): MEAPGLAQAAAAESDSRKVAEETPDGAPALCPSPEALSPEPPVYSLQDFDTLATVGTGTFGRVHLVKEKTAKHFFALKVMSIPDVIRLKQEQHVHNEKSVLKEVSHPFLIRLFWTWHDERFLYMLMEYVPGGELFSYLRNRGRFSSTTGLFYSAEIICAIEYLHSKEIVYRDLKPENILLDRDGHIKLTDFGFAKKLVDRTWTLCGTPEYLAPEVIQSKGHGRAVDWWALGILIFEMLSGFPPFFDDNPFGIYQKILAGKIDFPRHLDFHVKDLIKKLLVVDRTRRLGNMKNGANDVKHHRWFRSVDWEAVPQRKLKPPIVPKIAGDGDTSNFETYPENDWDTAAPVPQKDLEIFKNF
T8 sequence (Q9H1R3 whole entry): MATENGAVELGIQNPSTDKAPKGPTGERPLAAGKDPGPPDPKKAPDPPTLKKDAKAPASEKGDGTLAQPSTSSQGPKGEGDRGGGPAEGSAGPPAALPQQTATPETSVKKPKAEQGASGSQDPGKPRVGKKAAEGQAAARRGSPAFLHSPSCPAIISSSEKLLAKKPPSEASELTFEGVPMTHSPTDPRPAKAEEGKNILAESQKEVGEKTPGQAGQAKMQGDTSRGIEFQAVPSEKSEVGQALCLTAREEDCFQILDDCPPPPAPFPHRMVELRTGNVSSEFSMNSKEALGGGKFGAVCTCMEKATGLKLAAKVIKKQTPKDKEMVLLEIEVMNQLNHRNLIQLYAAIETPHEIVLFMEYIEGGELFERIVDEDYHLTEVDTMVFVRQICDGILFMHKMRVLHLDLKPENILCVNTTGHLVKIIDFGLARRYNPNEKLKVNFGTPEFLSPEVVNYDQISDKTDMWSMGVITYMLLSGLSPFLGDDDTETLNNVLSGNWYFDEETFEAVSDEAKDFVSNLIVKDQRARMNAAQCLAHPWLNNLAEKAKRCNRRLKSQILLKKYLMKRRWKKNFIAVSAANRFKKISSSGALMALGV

Question: What does the source list for CCn1cnc2c(NCc3ccc(-c4ccccn4)nc3)nc(-c3ccc(N)nc3)nc21 [Compound 30d, N-([2,2′-Bipyridin]-5-ylmethyl)-2-(6-aminopyridin-3-yl)-9-ethyl-9H-purin-6-amine]?
Answer: remaining activity at 10 µM (PRKD2): 72.3%; remaining activity at 10 µM (CSNK1A1): 26.5%; remaining activity at 10 µM (NLK): 24.8%; remaining activity at 10 µM (FER): 52.3%; remaining activity at 10 µM (GRK6): 80.6%; remaining activity at 10 µM (CDK4/cyclinD1): 33.5%; remaining activity at 10 µM (EPHB4): 23.2%; remaining activity at 10 µM (MYLK2): 60%; remaining activity at 10 µM (STK39): 29.6%; remaining activity at 10 µM (EGFR): 83.7%; remaining activity at 10 µM (PKAC-gamma): 88.4%; remaining activity at 10 µM (SIK2): 35.9%; remaining activity at 10 µM (VRK1): 87.3%; remaining activity at 10 µM (RET): 79.4%; remaining activity at 10 µM (IGF1R): 58%; remaining activity at 10 µM (MAP4K2): 58.4%; remaining activity at 10 µM (MLCK): 63.4%; remaining activity at 10 µM (STK23): 82.8%; remaining activity at 10 µM (TBK1): 55%; remaining activity at 10 µM (LRRK2): 17.7%; remaining activity at 10 µM (LTK): 73.6%; remaining activity at 10 µM (CIT): 97.9%; remaining activity at 10 µM (EPHA7): 31.3%; remaining activity at 10 µM (PRKX): 79.2%; remaining activity at 10 µM (KSR1): 100%; remaining activity at 10 µM (CSNK1G1): 29.8%; remaining activity at 10 µM (ERN2): 65.4%; remaining activity at 10 µM (SRMS): 96.8%; remaining activity at 10 µM (IKK-beta): 83.7%; remaining activity at 10 µM (TNIK): 69%; remaining activity at 10 µM (PKN2): 85.8%; remaining activity at 10 µM (PRKCH): 87.9%; remaining activity at 10 µM (PKN3): 81.6%; remaining activity at 10 µM (CLK2): 11.7%; inhibition at 10 µM (LKB1): > 95%; remaining activity at 10 µM (LKB1): 0.1%; remaining activity at 10 µM (CSK): 54.8%; remaining activity at 10 µM (PDGFRa): 52.8%; remaining activity at 10 µM (TAOK2): 23.8%; remaining activity at 10 µM (ITK): 81.7%; remaining activity at 10 µM (MKK7): 96.3%; remaining activity at 10 µM (CHEK2): 7.4%; remaining activity at 10 µM (MKK4): 96.4%; remaining activity at 10 µM (MINK): 101%; remaining activity at 10 µM (INSRR): 31.1%

From article PMC9506414, “Novel 2,6,9-Trisubstituted Purines as Potent CDK Inhibitors Alleviating Trastuzumab-Resistance of HER2-Positive Breast Cancers” (Pharmaceuticals, 2022)
